Measurements reported in patent US20230348493A1, “COMPOUND FOR ADJUSTING ACTIVITY OF NMDA RECEPTOR, AND PHARMACEUTICAL COMPOSITION AND USE THEREOF” (BEIJING GREATWAY PHARMACEUTICAL TECHNOLOGY CO., LTD., priority 2020, published 2023).

Each compound was assayed against T1, NMDA receptor (Rattus norvegicus, UniProt P35439) (assay: NMDA receptor agonistic properties in rat crude synaptosomal proteins (maximum [3H]-MK-801 binding vs 1 mM glycine)). Settings: maximum [3H]-MK-801 binding % relative to 1 mM glycine; 50 μM glutamic acid.
T1 construct: After the rats were decapitated, the prefrontal cortex and hippocampus were rapidly separated on ice; from tissue; host or cells: SD male rat prefrontal cortex and hippocampus, crude synaptosomes
Format: biochemical
Method: (§1) After the rats were decapitated, the prefrontal cortex and hippocampus were rapidly separated on ice and weighed, 10 volumes of 50 mM Tris-HCl buffer (50 mM Tris-HCl, 5 mM MgCl2·6H2O, 1 mM EDTA, 0.5% (W/V) BSA, 1 mM PMSF, 0.32 M sucrose, pH 7.4) was added, and the mixture was homogenized for five times at 1500 revolutions/min with 30 s each time. A homogenate was centrifuged for 10 min at 1000×g, and a supernatant was taken and centrifuged for 10 min at 40,000×g, the precipitates were collected, re-suspended with volumes of Tris-HCl buffer, incubated at 37° C. for 10 min, and centrifuged for 10 min at 40,000×g, finally the precipitates were re-suspended with the above buffer, aliquoted and stored at −80° C. for later use.
(3) Detection of Influence of Tested Medicines on NMDA Receptor Agonistic Properties in Rat Crude Synaptosomal Proteins
100 μg of rat crude synaptosomal proteins was added to all tubes respectively. 50 μl of 5,7-dichlorokynurenic acid was added to a non-specific binding tube to achieve a final concentration of 10 μM. All tubes were preloaded with 50 μM of glutamic acid, and the materials were reacted for 15 min in advance. 20 μL of control drug at corresponding concentration was added to the test tube, and then reacted for 15 min. 1 mM glycine was added to the maximum reaction tube. A volume of 30 μl of labeled ligand [^3H]-MK-801 was successively added to all tubes to achieve a final concentration of 10 nM, and reacted for 15 min. All reaction tubes were supplemented to a volume of 500 μl with 50 mM Tris-HCl buffer (50 mM Tris-HCl, 5 mM MgCl2·6H2O, 1 mM EDTA, 0.5% (WN) BSA, 0.1% NaN3, pH 7.4). A reaction was carried out at 37° C. for 15 min. A type-49 glass fiber filter membrane was prepared and a sample was applied at the same time. The filter membrane was placed in a multi-head cell collector, and the reaction system was subjected to suction filtration under negative pressure and washed with an ice-cold 50 mM Tris-HCl buffer, 10 ml each time, for a total of 5 times. After suction drying, 1 ml of scintillation liquid was added to the filter membrane, the filter membrane was placed on the shaker for shaking for 1.5 h and then placed in the liquid scintillation counter on the next day to determine the radioactive intensity.
In an agonistic experiment, maximum [^3H]-MK-801 binding %=((tested compounds cpm−5,7 dichlorokynurenic acid cpm)/(1 mM glycine cpm−5,7 dichlorokynurenic acid cpm))×100%.

SMILES | Maximum agonistic efficacy (%)
C[C@@H](O)[C@H](N)C(=O)N1CCC2(CC1)N[C@H](C(=O)N[C@H](C(N)=O)[C@@H](C)O)CS2.Cl [A-394] | 63
COC(=O)[C@@H]1CSC2(CCN(C(=O)[C@@H](N)[C@@H](C)O)CC2)N1.Cl [A-291] | 13
C[C@@H](O)[C@H](N)C(=O)N1CC2(C1)SCCN2C.Cl [A-226] | 45
CC(=O)N1CCC2(CC1)SCCN2C(=O)C(C)C [A-111] | 38
C[C@@H](O)[C@H](NC(=O)[C@@H]1CSC2(CCNCC2)N1)C(N)=O.Cl [A-390] | 55
C[C@@H](O)[C@H](N)C(=O)N1CCCC2(C1)N[C@H](C(=O)N[C@H](C(N)=O)[C@@H](C)O)CS2.Cl (stereo partly shown) [A-401] | 75
CC(C)[C@H](N)C(=O)N1CCSC12CNC2.Cl [A-329] | 26
CC(C)(C)OC(=O)N1CCCC2(C1)NCCS2 (stereo not shown) [A-044] | 28
CC(C)[C@H](N)C(=O)N1CCC2(CC1)N[C@H](C(N)=O)CS2.Cl [A-276] | 28
C[C@@H](O)[C@H](N)C(=O)N1CCC2(CC1)N[C@H](C(=O)N1CCCCC1)CS2.Cl [A-437] | 42
C[C@@H](O)[C@H](N)C(=O)N1CC2(C1)SCCN2C(=O)C(C)(C)C.Cl [A-130] | 43
CC(=O)N1[C@H](C(N)=O)CSC12CN(C(=O)[C@@H](N)C(C)O)C2.Cl (stereo partly shown) [A-335] | 42
CC(=O)N1CC2(C1)N[C@H](C(=O)N[C@@H](CO)C(N)=O)CS2 [A-333] | 19
Cl.N[C@@H](CO)C(=O)N1CCC2(CC1)NCCS2 [A-035] | 19
C[C@H](NC(=O)[C@@H]1CSC2(CN(C(=O)[C@@H](N)[C@@H](C)O)C2)N1)C(N)=O.Cl [A-378] | 49
Cl.N[C@@H](CO)C(=O)N1CCC2(CC1)N[C@H](C(=O)N1CCNCC1)CS2 [A-476] | 56
CC(C)C(=O)N1CCC2(CC1)SCCN2C(=O)[C@@H](N)[C@@H](C)O.Cl [A-358] | 78
CC(=O)N1CCSC12CN(C(=O)[C@@H](N)C(C)C)C2.Cl [A-068] | 48
C[C@@H](O)[C@H](N)C(=O)N1CCC2(C1)N[C@H](C(=O)N1CCCCC1)CS2.Cl (stereo partly shown) [A-421] | 45
CC(=O)N1CCSC12CCN(C(=O)OC(C)(C)C)CC2 [A-078] | 56
CC(=O)N1CC2(C1)SCCN2C(C)=O [A-059] | 33
CC(C)(C)OC(=O)N1CCC2(CC1)NCCS2 [A-030] | 39
CC(C)C(=O)N1CCSC12CCN(C(=O)[C@@H](N)[C@@H](C)O)CC2.Cl [A-114] | 35

What follows are compounds tested against T1, NMDA receptor (assay: Inhibition of [3H]-MK-801 binding to rat crude synaptosomes (receptor ligand binding assay)). Settings: not given.
Method: The affinity of the tested compounds on NMDA receptor was researched by receptor ligand binding assays.
Ten SD male rats of SPF grade were ordered and acclimated for 7 days for future use.
as §1
(2) Detection of Inhibitory Function of Tested Medicines on Binding of Crude Synaptosomes in Rats to [^3H]-MK-801
50 μg of rat crude synaptosomal proteins was added to all tubes respectively. A volume of 50 μl of MK-801 (dizocilpine) was added to a non-specific binding tube to achieve a final concentration of 100 μM, and the materials were reacted for 15 min in advance. 20 μL of control drug at corresponding concentration was added to the test tube for reaction for 15 min. A volume of 30 μl of labeled ligand [^3H]-MK-801 was successively added to all tubes to achieve a final concentration of 10 nM. All reaction tubes were supplemented to a volume of 200 μl with 50 mM Tris-HCl buffer (50 mM Tris-HCl, 5 mM MgCl2·6H2O, 1 mM EDTA, 0.5% (WN) BSA, 0.1% NaN3, pH 7.4). A reaction was carried out at 37° C. for 10 min. A type-49 glass fiber filter membrane was prepared and a sample was applied at the same time. The filter membrane was placed in a multi-head cell collector, and a reaction system was subjected to suction filtration under negative pressure and washed with an ice-cold 50 mM Tris-HCl buffer, 10 ml each time, for a total of 5 times. After suction drying, 1 ml of scintillation liquid was added to the filter membrane, the filter membrane was placed on a shaker for shaking for 1.5 h and then placed in a liquid scintillation counter on the next day to determine the radioactive intensity.
GraphPad5.0 software was used to analyze the data, and the percentage of competitive inhibition was calculated through nonlinear fitting, wherein:
Percentage of competitive inhibition %=((total binding tube cpm−compound cpm)/(total binding tube cpm−non-specific binding tube cpm))×100%;
Specific binding amount=total binding amount−non-specific binding amount, wherein each binding site was determined by double compound tubes.

SMILES | IC50 [nM]
CC(C)[C@H](N)C(=O)N1CCSC12CNC2.Cl [A-329] | 0.73

Same assay, conditions: affinity on NMDA; [3H]-MK-801 10 nM, rat prefrontal cortex and hippocampus crude synaptosomes; read-out: IC50

SMILES | IC50 [nM]
C[C@@H](O)[C@H](N)C(=O)N1CCC2(CC1)N[C@H](C(=O)N[C@H](C(N)=O)[C@@H](C)O)CS2.Cl [A-394] | 0.79
COC(=O)[C@@H]1CSC2(CCN(C(=O)[C@@H](N)[C@@H](C)O)CC2)N1.Cl [A-291] | 0.88
C[C@@H](O)[C@H](N)C(=O)N1CC2(C1)SCCN2C.Cl [A-226] | 0.33
CC(=O)N1CCC2(CC1)SCCN2C(=O)C(C)C [A-111] | 1.58
C[C@@H](O)[C@H](NC(=O)[C@@H]1CSC2(CCNCC2)N1)C(N)=O.Cl [A-390] | 0.39
C[C@@H](O)[C@H](N)C(=O)N1CCCC2(C1)N[C@H](C(=O)N[C@H](C(N)=O)[C@@H](C)O)CS2.Cl (stereo partly shown) [A-401] | 0.44
CC(C)(C)OC(=O)N1CCCC2(C1)NCCS2 (stereo not shown) [A-044] | 0.66
CC(C)[C@H](N)C(=O)N1CCC2(CC1)N[C@H](C(N)=O)CS2.Cl [A-276] | 0.25
C[C@@H](O)[C@H](N)C(=O)N1CCC2(CC1)N[C@H](C(=O)N1CCCCC1)CS2.Cl [A-437] | 0.33
C[C@@H](O)[C@H](N)C(=O)N1CC2(C1)SCCN2C(=O)C(C)(C)C.Cl [A-130] | 0.48
CC(=O)N1[C@H](C(N)=O)CSC12CN(C(=O)[C@@H](N)C(C)O)C2.Cl (stereo partly shown) [A-335] | 0.48
CC(=O)N1CC2(C1)N[C@H](C(=O)N[C@@H](CO)C(N)=O)CS2 [A-333] | 0.41
Cl.N[C@@H](CO)C(=O)N1CCC2(CC1)NCCS2 [A-035] | 0.88
C[C@H](NC(=O)[C@@H]1CSC2(CN(C(=O)[C@@H](N)[C@@H](C)O)C2)N1)C(N)=O.Cl [A-378] | 1.66
Cl.N[C@@H](CO)C(=O)N1CCC2(CC1)N[C@H](C(=O)N1CCNCC1)CS2 [A-476] | 0.96
CC(C)C(=O)N1CCC2(CC1)SCCN2C(=O)[C@@H](N)[C@@H](C)O.Cl [A-358] | 0.86
CC(=O)N1CCSC12CN(C(=O)[C@@H](N)C(C)C)C2.Cl [A-068] | 1.3
C[C@@H](O)[C@H](N)C(=O)N1CCC2(C1)N[C@H](C(=O)N1CCCCC1)CS2.Cl (stereo partly shown) [A-421] | 0.38
CC(=O)N1CCSC12CCN(C(=O)OC(C)(C)C)CC2 [A-078] | 1.59
CC(=O)N1CC2(C1)SCCN2C(C)=O [A-059] | 0.75
CC(C)(C)OC(=O)N1CCC2(CC1)NCCS2 [A-030] | 0.35
CC(C)C(=O)N1CCSC12CCN(C(=O)[C@@H](N)[C@@H](C)O)CC2.Cl [A-114] | 0.89
